The values that follow come from patent publication US11999746B2, “Compounds” (GlaxoSmithKline Intellectual Property Development Limited, priority 2014, dated 2024).

Structures can show the parent of a compound that is named as a salt. Where two headings read alike, the source gives them in different places. Bounds are passed on as bounds.

Assay [1] addresses T1, recombinant human Lp-PLA2 (Homo sapiens, UniProt Q13093).
T1 sequence (Q13093 22-441): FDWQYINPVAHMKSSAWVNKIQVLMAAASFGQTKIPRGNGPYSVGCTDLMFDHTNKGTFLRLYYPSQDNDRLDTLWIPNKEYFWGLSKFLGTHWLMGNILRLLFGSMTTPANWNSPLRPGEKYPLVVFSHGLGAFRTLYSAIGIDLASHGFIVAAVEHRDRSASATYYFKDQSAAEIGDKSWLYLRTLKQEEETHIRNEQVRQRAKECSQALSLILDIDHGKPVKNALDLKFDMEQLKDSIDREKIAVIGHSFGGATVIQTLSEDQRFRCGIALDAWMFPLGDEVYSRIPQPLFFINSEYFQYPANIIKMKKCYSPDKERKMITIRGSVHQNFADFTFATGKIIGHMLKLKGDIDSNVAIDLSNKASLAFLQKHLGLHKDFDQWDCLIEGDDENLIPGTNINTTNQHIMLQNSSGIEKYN
Put plainly: (1b) hrThioPAF assay, recombinant human Lp-PLA2. It counts as biochemical. Particulars: Examples 266-412 were tested here, one experiment or average of multiple experiments, read-out: rhLp-PLA2 (pIC50) (converted). In outline: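 Fluorogenic assay: 20 pM rhLp-PLA2 in 50 mM HEPES pH 7.4, 150 mM NaCl, 1 mM CHAPS with 1:3 serially diluted compounds; substrate mix of 40 μM 2-thio-PAF, 40 μM CPM, 400 μM NEM (pre-addition levels). 20 min at 25 °C in the dark; fluorescence ex 380/em 485 nm, pIC50 by curve fitting.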

A further assay addresses T2, Lp-PLA2 in human plasma (Homo sapiens, UniProt Q13093).
T2 construct: from tissue; host or cells: pooled human plasma
T2 sequence (Q13093 22-441): T1 sequence (Q13093 22-441)
Kind of assay: (3b) Lp-PLA2 human plasma alternative Thio-PAF assay. It counts as biochemical. Particulars: pooled human plasma, read-out: pIC50 in the Lp-PLA2 human plasma assay (converted). As to the method:
(3b) Alternative Thio-PAF Assay
The human plasma assay utilizes the same thioester analog of PAF as described in (1b) “hr ThioPAF” assay. This assay may detect the activity of Lp-PLA2 in human plasma, as determined by specific inhibition by Lp-PLA2 inhibitors.
The thio-PAF assay was run as a quenched 20 μL assay. Compounds source plate was prepared by making 1:3 (by volume) serial dilution of the compounds into pure DMSO on 96-well microplate. 5 μL of compounds on compound source plate were transferred to 96-well Corning 3686 (black) low-volume plates by STAR+(Hamilton) liquid dispenser. 10 μL pooled human plasma, which was previously aliquoted and frozen, was added. Plates were centrifuged for 30 sec at 1000 rpm. After 15 minutes preincubation at room temperature, 5 μL of substrate solution comprising 2 mM 2-thio-PAF [from ethanol stock], 52 μM CPM [from a DMSO stock] and 2.5 mM NEM (N-ethylmaleimide) [made fresh daily in DMSO] in assay buffer (50 mM HEPES, pH 7.4, 150 mM NaCl, 1 mM CHAPS) was added to 96-well Corning 3686 (black) low-volume plates. After 3 mins, reaction was quenched with 10 μL of 5% aqueous trifluoroacetic acid (TFA). Plates were centrifuged 30 sec at 1000 rpm, covered to protect from light and incubated for 10 min at room temperature. Plates were read at ex: 380 nm/em: 485 nm using Envision plate reader (Perkin Elmer). Raw data were transferred to Excel software and pIC50 data, curve and QC analysis was conducted by using XL fit module in Excel.

Setting [2] is: (3b) alternative Thio-PAF assay, Examples of 266-412 were tested here.

Turning to `N#Cc1cc(COc2cc3n(c(=O)n2)CC2CNCCN32)ccc1F` (stereo not drawn) [Example E266, 2-Fluoro-5-(((9-oxo-2,3,4,9,11,11a-hexahydro-1H-pyrazino[1′,2′:3,4]imidazo[1,2-c]pyrimidin-7-yl)oxy)methyl)benzonitrile], the IC50 (in assay [1]; at Lp-PLA2 in human plasma (setting [2])) was at most 100 nM each time.
Turning to `Cc1ccc(Oc2c(F)cc(COc3cc4n(c(=O)n3)CC3CN(C)C(=O)CN43)cc2F)cn1` (stereo not drawn) [Example E360, 7-((3,5-difluoro-4-((6-methylpyridin-3-yl)oxy)benzyl)oxy)-2-methyl-11,11a-dihydro-1H-pyrazino[1′,2′:3,4]imidazo[1,2-c]pyrimidine-3,9(2H,4H)-dione, trifluoroacetic acid salt], the IC50 in assay [1] is at most 10000 nM; on Lp-PLA2 in human plasma (setting [2]), at most 100 nM.
With `CN(C)CC(=O)N1CCN2c3cc(OCc4ccc(F)c(C#N)c4)nc(=O)n3CC2C1` (stereo not drawn) [Example E284, 5-(((2-(2-(Dimethylamino)acetyl)-9-oxo-2,3,4,9,11,11a-hexahydro-1H-pyrazino[1,2′:3,4]imidazo[1,2-c]pyrimidin-7-yl)oxy)methyl)-2-fluorobenzonitrile], the results for the IC50 (in assay [1]; on Lp-PLA2 in human plasma (setting [2])) were at most 10000 nM and at most 100 nM, respectively.
The matching figures for `N#Cc1cc(COc2cc3n(c(=O)n2)C[C@@H]2C[C@H](O)CN32)ccc1F` [Example E382, 2-Fluoro-5-((((7S,8aS)-7-hydroxy-1-oxo-1,6,7,8,8a,9-hexahydropyrrolo[1′,2′:3,4]imidazo[1,2-c]pyrimidin-3-yl)oxy)methyl)benzonitrile]: at most 10000 nM and at most 100 nM.
The matching figures for `CC(C)(N)CC(=O)N1CCN2c3cc(OCc4ccc(F)c(F)c4)nc(=O)n3CC2C1` (stereo not drawn) [Example E334, 2-(3-Amino-3-methylbutanoyl)-7-((3,4-difluorobenzyl)oxy)-3,4,11,11a-tetrahydro-1H-pyrazino[1′,2′:3,4]imidazo[1,2-c]pyrimidin-9(2H)-one]: at most 10000 nM and at most 100 nM.
With `CC(C)C(=O)N1CCN2c3cc(OCc4ccc(F)c(F)c4)nc(=O)n3CC2C1` (stereo not drawn) [Example E310, 7-((3,4-Difluorobenzyl)oxy)-2-isobutyryl-3,4,11,11a-tetrahydro-1Hpyrazino[1′,2′:3,4] imidazo[1,2-c]pyrimidin-9(2H)-one], the IC50 (in assay [1]; at Lp-PLA2 in human plasma (setting [2])) was at most 100 nM each time.
With `CC(=O)N1CCC2(CC1)Cn1c(cc(OCc3ccc(F)c(F)c3)nc1=O)N2C(C)=O` [Example 408, 1,1-(7-((3,4-difluorobenzyl)oxy)-5-oxo-1H-spiro[imidazo[1,2-c]pyrimidine-2,4′-piperidin]-1,1′(3H,5H)-diyl)diethanone], the IC50 in assay [1] was at most 10000 nM; on Lp-PLA2 in human plasma (setting [2]) it was at most 100 nM.
Taken in the same sequence, the figures for `CN1CC2Cn3c(cc(OCc4ccc(F)c(F)c4)nc3=O)N2CC1=O` (stereo not drawn) [Example E359, 7-((3,4-Difluorobenzyl)oxy)-2-methyl-11,11a-dihydro-1H-pyrazino[1,2′:3,4]imidazo[1,2-c]pyrimidine-3,9(2H,4H)-dione] were at most 10000 nM and at most 100 nM.
The matching figures for `N#Cc1cc(COc2cc3n(c(=O)n2)CC2C[S+]([O-])CCN32)ccc1F` (stereo not drawn) [Example E366, 2-Fluoro-5-(((2-oxido-9-oxo-1,3,4,9,11,11a-hexahydropyrimido[6′,1′:2,3]imidazo[5,1-c][1,4]thiazin-7-yl)oxy)methyl)benzonitrile]: at most 10000 nM and at most 100 nM.
Taken in the same sequence, the figures for `Cc1ccc(Oc2c(F)cc(COc3cc4n(c(=O)n3)CC3(CCOCC3)N4C)cc2F)cn1` [Example 405, 7-((3,5-Difluoro-4-((6-methylpyridin-3-yl)oxy)benzyl)oxy)-1-methyl-2′,3′,5′,6′-tetrahydro-1H-spiro[imidazo[1,2-c]pyrimidine-2,4′-pyran]-5(3H)-one] were at most 100 nM and at most 100 nM.
For `Cc1ccc(Oc2c(F)cc(COc3cc4n(c(=O)n3)CC3(COC3)N4)cc2F)cn1` [Example E394, 7-((3,5-Difluoro-4-((6-methylpyridin-3-yl)oxy)benzyl)oxy)-1H-spiro[imidazo[1,2-c]pyrimidine-2,3′-oxetan]-5(3H)-one], the IC50 is at most 10000 nM in assay [1] and at most 100 nM at Lp-PLA2 in human plasma (setting [2]).
Regarding `O=c1nc(OCc2cc(F)c(Oc3cncc(C(F)(F)F)c3)c(F)c2)cc2n1CC1(CCN(Cc3ccccc3)CC1)N2` [Example 411, 1′-Benzyl-7-((3,5-difluoro-4-((5-(trifluoromethyl)pyridin-3-yl)oxy)benzyl)oxy)-1H-spiro[imidazo[1,2-c]pyrimidine-2,4′-piperidin]-5(3H)-one], the IC50 in assay [1] was at most 1 nM; on Lp-PLA2 in human plasma ((3a) Thio-PAF assay, Examples 1-265 and 413-430 were tested here) it was at most 10000 nM; at Lp-PLA2 in human plasma (setting [2]), at most 100 nM.
Consider `O=c1nc(OCc2ccc(F)c(F)c2)cc2n1CC1CN(CC(F)(F)F)CCN21` (stereo not drawn) [Example E338, 7-((3,4-Difluorobenzyl)oxy)-2-(2,2,2-trifluoroethyl)-3,4,11,11a-tetrahydro-1H pyrazino[1′,2′:3,4]imidazo[1,2-c]pyrimidin-9(2H)-one trifluoroacetate], for which the IC50 is 10 nM in assay [1] and at most 100 nM on Lp-PLA2 in human plasma (setting [2]).
Taken in the same sequence, the figures for `CN1c2cc(OCc3cc(F)c(Oc4cnn(C)c4)c(F)c3)nc(=O)n2CC12COC2` [Example E397, 7-((3,5-Difluoro-4-((1-methyl-1H-pyrazol-4-yl)oxy)benzyl)oxy)-1-methyl-1H-spiro[imidazo[1,2-c]pyrimidine-2,3′-oxetan]-5(3H)-one] were at most 10000 nM and at most 100 nM.
The matching figures for `CN(C)CCC(=O)N1CCN2c3cc(OCc4ccc(F)c(F)c4)nc(=O)n3CC2C1` (stereo not drawn) [Example E337, 7-((3,4-Difluorobenzyl)oxy)-2-(3-(dimethylamino)propanoyl)-3,4,11,11a-tetrahydro-1H-pyrazino[1,2′:3,4]imidazo[1,2-c]pyrimidin-9(2H)-one]: at most 10000 nM and at most 100 nM.
Regarding `CC(C)CC(=O)N1CCN2c3cc(OCc4ccc(F)c(C#N)c4)nc(=O)n3CC2C1` (stereo not drawn) [Example E293, 2-Fluoro-5-(((2-(3-methylbutanoyl)-9-oxo-2,3,4,9,11,11a-hexahydro-1H pyrazino[1′,2′:3,4]imidazo[1,2-c]pyrimidin-7-yl)oxy)methyl)benzonitrile], the IC50 is at most 10000 nM in assay [1] and at most 100 nM at Lp-PLA2 in human plasma (setting [2]).
The matching figures for `Cc1ccc(Oc2c(F)cc(COc3cc4n(c(=O)n3)CC3(COC3)N4C)cc2F)cn1` [Example 400, 7-((3,5-Difluoro-4-((6-methylpyridin-3-yl)oxy)benzyl)oxy)-1-methyl-1H-spiro[imidazo[1,2-c]pyrimidine-2,3′-oxetan]-5(3H)-one]: at most 10000 nM and at most 100 nM.
In the case of `O=C(C1CC1)N1CCN2c3cc(OCc4ccc(F)c(F)c4)nc(=O)n3CC2C1` (stereo not drawn) [Example E330, 2-(Cyclopropanecarbonyl)-7-((3,4-difluorobenzyl)oxy)-3,4,11,11a-tetrahydro-1H-pyrazino[1′,2′:3,4]imidazo[1,2-c]pyrimidin-9(2H)-one], the IC50 in assay [1] is at most 10000 nM; on Lp-PLA2 in human plasma (setting [2]), at most 100 nM.
Taken in the same sequence, the figures for `O=C1CN2c3cc(OCc4cc(F)c(Oc5cncc(C(F)(F)F)c5)c(F)c4)nc(=O)n3CC2CN1` (stereo not drawn) [Example E352, 7-((3,5-Difluoro-4-((5-(trifluoromethyl)pyridin-3-yl)oxy)benzyl)oxy)-11,11a-dihydro-1H-pyrazino[1,2′:3,4]imidazo[1,2-c]pyrimidine-3,9(2H,4H)-dione] were 0.501 nM and at most 100 nM.
